According to patent US20230085307A1, “PYRIDAZINONE COMPOUND AND HERBICIDE” (NISSAN CHEMICAL CORPORATION, priority 2019, published 2023):

Assays:
late watergrass = assay: Test Example 1: herbicidal activity, application before weed generation under submerged conditions (Table 16, symbol A); format: in vivo, late watergrass (Echinochloa oryzicola); conditions: 272 g/ha applied herbicide
Procedure, shortened: (§1)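 Alluvial soil was flooded to 4 cm depth, weed seeds were sown mixed and 2.5-leaf rice seedlings were transplanted. On sowing day, the compound's emulsion, diluted in water to a set dose, was applied to the water surface. Plants grew at 25–30 °C and were scored 0–5 after three weeks.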

Japanese bulrush = assay: Test Example 1: herbicidal activity, application before weed generation under submerged conditions (Table 16, symbol B); format: in vivo, Japanese bulrush (Schoenoplectus juncoides); conditions: 272 g/ha applied herbicide
Procedure, shortened: as §1

oval-leafed pondweed = assay: Test Example 1: herbicidal activity, application before weed generation under submerged conditions (Table 16, symbol C); format: in vivo, oval-leafed pondweed (Monochoria vaginalis); conditions: 272 g/ha applied herbicide
Procedure, shortened: as §1

barnyard grass [1] = assay: Test Example 3: herbicidal effect by foliage application, Wagner pot (Table 18, symbol H); format: in vivo, barnyard grass (Echinochloa crus-galli); conditions: 272 g/ha
Procedure, shortened: (§2)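 Plants were sown in alluvial soil held under 0.1–0.5 cm standing water and grown 14 days in a greenhouse at 25–30 °C. An emulsifiable formulation, water-diluted to the set dose, was then sprayed onto the foliage, and effects were scored three weeks later using previously defined criteria.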

Chinese sprangletop = assay: Test Example 3: herbicidal effect by foliage application, Wagner pot (Table 18, symbol D); format: in vivo, chinese sprangletop (Leptochloa chinensis); conditions: 272 g/ha
Procedure, shortened: as §2

rice flat sedge = assay: Test Example 3: herbicidal effect by foliage application, Wagner pot (Table 18, symbol E); format: in vivo, rice flat sedge (Cyperus iria); conditions: 272 g/ha
Procedure, shortened: as §2

southern crabgrass [2] = assay: Test Example 4: herbicidal effect by soil treatment (Table 19, symbol F); format: in vivo, southern crabgrass (Digitaria ciliaris); conditions: amount of applied herbicide 272 g/ha
Procedure, shortened: (§3)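 Three weeks of greenhouse growth at 25° C. to 30° C. followed a uniform surface spray of water-diluted emulsion at a predetermined herbicide amount. Seeds had been sown beforehand under about 1.5 cm of sterilized diluvial soil. Grading followed criteria set out in an earlier test.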

green foxtail [3] = assay: Test Example 4: herbicidal effect by soil treatment (Table 19, symbol G); format: in vivo, green foxtail (Setaria viridis); conditions: amount of applied herbicide 272 g/ha
Procedure, shortened: as §3

barnyard grass [4] = assay: Test Example 4: herbicidal effect by soil treatment (Table 19, symbol H); format: in vivo, barnyard grass (Echinochloa crus-galli); conditions: amount of applied herbicide 272 g/ha
Procedure, shortened: as §3

wild oat [5] = assay: Test Example 4: herbicidal effect by soil treatment (Table 19, symbol I); format: in vivo, wild oat (Avena fatua); conditions: amount of applied herbicide 272 g/ha
Procedure, shortened: as §3

blackgrass [6] = assay: Test Example 4: herbicidal effect by soil treatment (Table 19, symbol J); format: in vivo, blackgrass (Alopecurus myosuroides); conditions: amount of applied herbicide 272 g/ha
Procedure, shortened: as §3

Italian ryegrass [7] = assay: Test Example 4: herbicidal effect by soil treatment (Table 19, symbol K); format: in vivo, Italian ryegrass (Lolium multiflorum); conditions: amount of applied herbicide 272 g/ha
Procedure, shortened: as §3

windgrass [8] = assay: Test Example 4: herbicidal effect by soil treatment (Table 19, symbol L); format: in vivo, windgrass (Apera spica-venti); conditions: amount of applied herbicide 272 g/ha
Procedure, shortened: as §3

velvetleaf [9] = assay: Test Example 4: herbicidal effect by soil treatment (Table 19, symbol M); format: in vivo, velvetleaf (Abutilon theophrasti); conditions: amount of applied herbicide 272 g/ha
Procedure, shortened: as §3

redroot pigweed [10] = assay: Test Example 4: herbicidal effect by soil treatment (Table 19, symbol N); format: in vivo, redroot pigweed (Amaranthus retroflexus); conditions: amount of applied herbicide 272 g/ha
Procedure, shortened: as §3

lambsquarters [11] = assay: Test Example 4: herbicidal effect by soil treatment (Table 19, symbol O); format: in vivo, lambsquarters (Chenopodium album); conditions: amount of applied herbicide 272 g/ha
Procedure, shortened: as §3

chickweed [12] = assay: Test Example 4: herbicidal effect by soil treatment (Table 19, symbol P); format: in vivo, common chickweed (Stellaria media); conditions: amount of applied herbicide 272 g/ha
Procedure, shortened: as §3

persian speedwell [13] = assay: Test Example 4: herbicidal effect by soil treatment (Table 19, symbol R); format: in vivo, Persian speedwell (Veronica persica); conditions: amount of applied herbicide 272 g/ha
Procedure, shortened: as §3

southern crabgrass [14] = assay: Test Example 5: herbicidal effect by foliage application, plastic box (Table 20, symbol F); format: in vivo, southern crabgrass (Digitaria ciliaris); conditions: foliage application, 272 g/ha, three weeks after application
Procedure, shortened: (§4)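 Plants sown in sterilized diluvial soil and grown 14 days in a greenhouse at 25° C to 30° C, then sprayed on the foliage with the compound's emulsion diluted in water to a predetermined herbicide amount. Injury to weeds and crops scored three weeks after application on a visual rating scale.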

green foxtail [15] = assay: Test Example 5: herbicidal effect by foliage application, plastic box (Table 20, symbol G); format: in vivo, green foxtail (Setaria viridis); conditions: foliage application, 272 g/ha, three weeks after application
Procedure, shortened: as §4

barnyard grass [16] = assay: Test Example 5: herbicidal effect by foliage application, plastic box (Table 20, symbol H); format: in vivo, barnyard grass (Echinochloa crus-galli); conditions: foliage application, 272 g/ha, three weeks after application
Procedure, shortened: as §4

wild oat [17] = assay: Test Example 5: herbicidal effect by foliage application, plastic box (Table 20, symbol I); format: in vivo, wild oat (Avena fatua); conditions: foliage application, 272 g/ha, three weeks after application
Procedure, shortened: as §4

blackgrass [18] = assay: Test Example 5: herbicidal effect by foliage application, plastic box (Table 20, symbol J); format: in vivo, blackgrass (Alopecurus myosuroides); conditions: foliage application, 272 g/ha, three weeks after application
Procedure, shortened: as §4

Italian ryegrass [19] = assay: Test Example 5: herbicidal effect by foliage application, plastic box (Table 20, symbol K); format: in vivo, Italian ryegrass (Lolium multiflorum); conditions: foliage application, 272 g/ha, three weeks after application
Procedure, shortened: as §4

windgrass [20] = assay: Test Example 5: herbicidal effect by foliage application, plastic box (Table 20, symbol L); format: in vivo, windgrass (Apera spica-venti); conditions: foliage application, 272 g/ha, three weeks after application
Procedure, shortened: as §4

velvetleaf [21] = assay: Test Example 5: herbicidal effect by foliage application, plastic box (Table 20, symbol M); format: in vivo, velvetleaf (Abutilon theophrasti); conditions: foliage application, 272 g/ha, three weeks after application
Procedure, shortened: as §4

redroot pigweed [22] = assay: Test Example 5: herbicidal effect by foliage application, plastic box (Table 20, symbol N); format: in vivo, redroot pigweed (Amaranthus retroflexus); conditions: foliage application, 272 g/ha, three weeks after application
Procedure, shortened: as §4

lambsquarters [23] = assay: Test Example 5: herbicidal effect by foliage application, plastic box (Table 20, symbol O); format: in vivo, lambsquarters (Chenopodium album); conditions: foliage application, 272 g/ha, three weeks after application
Procedure, shortened: as §4

chickweed [24] = assay: Test Example 5: herbicidal effect by foliage application, plastic box (Table 20, symbol P); format: in vivo, common chickweed (Stellaria media); conditions: foliage application, 272 g/ha, three weeks after application
Procedure, shortened: as §4

persian speedwell [25] = assay: Test Example 5: herbicidal effect by foliage application, plastic box (Table 20, symbol R); format: in vivo, Persian speedwell (Veronica persica); conditions: foliage application, 272 g/ha, three weeks after application
Procedure, shortened: as §4

SMILES: COc1cc(F)ccc1-c1sc2ccccc2c1-c1c(O)c(C)nn(C)c1=O [1-055]
- Herbicidal effect on A: late watergrass (grade 0-5) (late watergrass): 4 (Herbicidal rate of 70% or more and less than 90%)
- Herbicidal effect on B: Japanese bulrush (grade 0-5) (Japanese bulrush): 0 (Herbicidal rate of 5% or less (almost no effect))
- Herbicidal effect on C: oval-leafed pondweed (grade 0-5) (oval-leafed pondweed): 0 (Herbicidal rate of 5% or less (almost no effect))
- herbicidal effect on H (barnyard grass), rating 0-5 (barnyard grass [1]): 5 (Herbicidal rate of 90% or more (almost completely withered))
- herbicidal effect on D (Chinese sprangletop), rating 0-5 (Chinese sprangletop): 2 (Herbicidal rate of 20% or more and less than 40%)
- herbicidal effect on E (rice flat sedge), rating 0-5 (rice flat sedge): 5 (Herbicidal rate of 90% or more (almost completely withered))
- herbicidal effect rating, F: southern crabgrass (southern crabgrass [2]): 2 (Herbicidal rate of 20% or more and less than 40%)
- herbicidal effect rating, G: green foxtail (green foxtail [3]): 5 (Herbicidal rate of 90% or more (almost completely withered))
- herbicidal effect rating, H: barnyard grass (barnyard grass [4]): 4 (Herbicidal rate of 70% or more and less than 90%)
- herbicidal effect rating, I: wild oat (wild oat [5]): 3 (Herbicidal rate of 40% or more and less than 70%)
- herbicidal effect rating, J: blackgrass (blackgrass [6]): 3 (Herbicidal rate of 40% or more and less than 70%)
- herbicidal effect rating, K: Italian ryegrass (Italian ryegrass [7]): 3 (Herbicidal rate of 40% or more and less than 70%)
- herbicidal effect rating, L: windgrass (windgrass [8]): 3 (Herbicidal rate of 40% or more and less than 70%)
- herbicidal effect rating, M: velvetleaf (velvetleaf [9]): 0 (Herbicidal rate of 5% or less (almost no effect))
- herbicidal effect rating, N: redroot pigweed (redroot pigweed [10]): 5 (Herbicidal rate of 90% or more (almost completely withered))
- herbicidal effect rating, O: lambsquarters (lambsquarters [11]): 4 (Herbicidal rate of 70% or more and less than 90%)
- herbicidal effect rating, P: chickweed (chickweed [12]): 5 (Herbicidal rate of 90% or more (almost completely withered))
- herbicidal effect rating, R: persian speedwell (persian speedwell [13]): 5 (Herbicidal rate of 90% or more (almost completely withered))
- herbicidal effect grade, F: southern crabgrass (southern crabgrass [14]): 4 (Herbicidal rate of 70% or more and less than 90%)
- herbicidal effect grade, G: green foxtail (green foxtail [15]): 4 (Herbicidal rate of 70% or more and less than 90%)
- herbicidal effect grade, H: barnyard grass (barnyard grass [16]): 4 (Herbicidal rate of 70% or more and less than 90%)
- herbicidal effect grade, I: wild oat (wild oat [17]): 5 (Herbicidal rate of 90% or more (almost completely withered))
- herbicidal effect grade, J: blackgrass (blackgrass [18]): 5 (Herbicidal rate of 90% or more (almost completely withered))
- herbicidal effect grade, K: Italian ryegrass (Italian ryegrass [19]): 4 (Herbicidal rate of 70% or more and less than 90%)
- herbicidal effect grade, L: windgrass (windgrass [20]): 5 (Herbicidal rate of 90% or more (almost completely withered))
- herbicidal effect grade, M: velvetleaf (velvetleaf [21]): 3 (Herbicidal rate of 40% or more and less than 70%)
- herbicidal effect grade, N: redroot pigweed (redroot pigweed [22]): 3 (Herbicidal rate of 40% or more and less than 70%)
- herbicidal effect grade, O: lambsquarters (lambsquarters [23]): 2 (Herbicidal rate of 20% or more and less than 40%)
- herbicidal effect grade, P: chickweed (chickweed [24]): 5 (Herbicidal rate of 90% or more (almost completely withered))
- herbicidal effect grade, R: persian speedwell (persian speedwell [25]): 4 (Herbicidal rate of 70% or more and less than 90%)
